The values below come from patent US5395932A, “2,3-,4-,5-,6-,7-,8-,9- and/or 10-substituted dibenzoxazepine compounds, pharmaceutical compositions and methods of use” (G. D. Searle & Co., priority 1993, dated 1995).

Assay [1] is described as follows: Writhing Assay (PBQ-induced writhing, analgesia). Type of assay: in vivo, Charles River male albino mice. As to conditions: Mus musculus, po, intragastric; for responders at 30 mg/kg: 30 mg per kilogram, 25 minutes before PBQ i.p., writhes ≤ one-half median of saline control, read-out: WRITHING ASSAY, number of mice out of 9 or 10 in which test compound produced analgesia (converted). On the procedure: The phrase "ED50 dose" as used herein means that dose of a compound or drug which produced a biological effect, such as producing analgesia, in 50% of the animals to which the compound or drug was administered. The Writhing Assay is one of the most widely-used experimental procedures for measuring the analgesic activity of different narcotic and nonnarcotic analgesic agents, and involves the continuous, chemically-induced pain of visceral origin to an animal, such as a mouse or rat. [Gyires et al., Arch. int. Pharmacodyn, 267, 131-140 (1984); […] al., Fed. Proc., 15, 494 (1956); Koster et al., Fed. Proc., 18, 412 (1959); and Witken et al., J. Pharmacol. exp. Ther., 133, 400-408 (1961).] Chemicals which may be used to induce this pain include phenylbenzoquinone (PBQ) and acetic acid. As a result of the chemical irritation to the animal, a characteristic stretching and writhing of the animal (dorsiflexion of the animal's back, extension of its hindlimbs and the strong contraction of its abdominal musculature) will generally occur. […] Drugs which reduce the number of writhes of the animal appear to restore the normal nociceptive threshold of the animal. […] Charles River male albino mice, weighing 20 to 30 grams were used in this assay. Twenty-five minutes after intragastric administration to nine or ten mice of 30 mg per kilogram of body weight of a compound of the present invention ("test compound"), […] per 10 g of body weight of a 0.025% w/v solution of PBQ was injected intraperitoneally into each mouse. Ten mice which were given saline in place of a test compound of the invention were used as a control group. Five minutes later, each mouse was individually placed into a glass beaker for observation, and the number of writhes occurring during the following ten-minute period was counted. A test compound was considered to have produced analgesia in a mouse if, in accordance with the conditions set forth above, and under the test criteria employed for this assay, after the administration of 30 mg per kilogram of body weight of a compound of the present invention to the mouse, the number of writhes elicited by a mouse injected with PBQ was equal to, or less than, one-half the median number of writhes recorded for the saline-treated control group of mice that day, as described by Taber in "Predictive Value of Analgesic Assays in Mice and Rats," Advances in Biochemical Psychopharmacology, 8, 191 (1974). The results for the particular compounds of the present invention analyzed in this assay, and discussed in the examples identified below which correspond thereto, are presented in Table 1 hereinbelow as fractions under the heading "WRITHING ASSAY." The fractions indicate the number of mice out of nine or ten in which a test compound produced analgesia. The standard initial screening dose of a test compound employed in this assay was 30 milligrams per […] of body weight. If this initial screening dose of the test compound produced analgesia in seven of nine or ten mice, then the effect of additional doses of the test compound on the writhing response was evaluated, and then the ED50 dose was generally calculated. (The slopes of the dose-response curves for all test compounds analyzed were compared as described by Tallarida and Murray, Manual of Pharmacologic Calculations, Page 11 (Springer Verlag, New York, 1981)). All ED50 doses calculated are also presented below as whole numbers in Table 1, under the heading "WRITHING ASSAY."

For assay [2], the target named is T1, prostaglandin E2-induced contractions of segments of guinea pig ileum (Cavia porcellus, UniProt A0A286XHJ6).
T1 construct: Segments of ileum about 2 cm long were then cut and mounted in a 10-mL tissue bath; from tissue; host or cells: guinea pig ileum segments
T1 sequence (A0A286XHJ6 1-405): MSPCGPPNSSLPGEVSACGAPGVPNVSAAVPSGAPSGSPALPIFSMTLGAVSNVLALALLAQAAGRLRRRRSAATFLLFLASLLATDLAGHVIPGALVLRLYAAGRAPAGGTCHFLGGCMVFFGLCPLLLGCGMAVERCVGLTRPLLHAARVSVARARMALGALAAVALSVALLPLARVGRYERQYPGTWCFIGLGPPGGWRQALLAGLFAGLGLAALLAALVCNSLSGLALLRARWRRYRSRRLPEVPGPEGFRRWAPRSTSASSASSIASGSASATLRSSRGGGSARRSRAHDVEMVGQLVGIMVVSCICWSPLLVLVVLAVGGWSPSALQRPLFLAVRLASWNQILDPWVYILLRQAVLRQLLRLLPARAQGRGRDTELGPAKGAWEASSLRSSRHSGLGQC
The experiment in a line: Prostaglandin (PGE) Antagonism Assay (guinea pig ileum). As to conditions: estimated from 3 micromolar (dose ratio ≥2) or Schild plot (dose ratio ≥5); 37° C.; read-out: PGE ANTAGONISM IN GUINEA PIG ILEUM (pA2) (converted). The class given is cell-based, male albino guinea pigs. From the text: The phrase "EC50 concentration" as used herein means that concentration of a compound or drug which is necessary to elicit a 50% maximal biological response and, thus, which is necessary to elicit a 50% reduction in the contractions of guinea pig ileum segments in a prostaglandin antagonism assay. (b) Prostaglandin (PGE) Antagonism Assay In order to determine the effectiveness of several of the compounds of the present invention ("test compounds") as prostaglandin E2 antagonists,a prostaglandin antagonism assay was conducted, as described below, to determine the ability of these compounds to inhibit prostaglandin E2 -induced contractions of segments of guinea pig ileum. […] Male albino guinea pigs weighing 200 to 500 grams were sacrificed by cervical dislocation. The ilea were then quickly removed from the guinea pigs and placed in a modified Tyrode solution, a solution which is known to those skilled in the art, containing one-half of the usual amount of magnesium ions. Segments of ileum about 2 cm long were then cut and mounted in a 10-mL tissue bath containing the modified Tyrode solution. The solution was maintained at 37° C. and aerated with a gaseous mixture of 95% oxygen and 5% carbon dioxide. Data for a control prostaglandin E2 dose response curve plotting concentration of prostaglandin E2 versus the intensity of contractions, detected isotonically, was then obtained by experimentally adjusting the dose of the prostaglandin E2 being injected into the tissue bath, in a manner known by those of skill in the art. Solutions or suspensions containing an initial concentration (3 micromolar) of a test compound in modified Tyrode solution ("test solutions/suspensions") were then separately substituted for the control bath solution. Each test solution/suspension was then kept in constant contact with the ileum tissue, except for brief periods to drain the bath in preparation for rinsing with fresh test solution/suspension. A second prostaglandin E2 dose response curve was then generated for prostaglandin E2 in the presence of a test compound. A dose ratio of EC50 doses was then calculated from the results of each test in a manner known by those of skill in the art. A test compound was determined to be "active" if the initial concentration used yielded at least a two-fold shift (dose ratio greater than or equal to 2) in the dose response curve for prostaglandin E2. […] The compounds of the present invention which were tested in this assay, and for which results are presented in Table 1, correspond to the particular examples specified in Table 1.

Counter-ions that a name gives are not always drawn.

As to `O=C(NCc1ccncc1)c1csc(CN2Cc3ccccc3Oc3ccc(Cl)cc32)n1` [Example 21, 2-[(8-chlorodibenzb,f][1,4]oxazepin-10(11H)yl)methyl]-N-(4-pyridinylmethyl)-4-thiazolecarboxamide, acetate, hydrochloride], in assay [1], the responders at 30 mg/kg was 70%. Further, in assay [2], the Kb is 794 nM.
As to `O=C(CCc1ccncc1)c1csc(N2Cc3ccccc3Oc3ccc(Cl)cc32)n1` [Example 32, 1-[2-(8-Chlorodibenz[b,f][1,4]oxazepin-10(11H)-yl)-4-thiazolyl]-3-(4-pyridinyl)-1-propanone, monohydrochloride], the responders at 30 mg/kg in assay [1] was 60%. In addition, in assay [2], the Kb was 631 nM.
The term ED50 denotes the midpoint of the dose-response relation. A low value points to an effect at a small dose. In the case of `Cl.O=C(NCc1ccncc1)c1csc(N2Cc3ccccc3Oc3ccc(Cl)cc32)n1` [Example 26, 2-(8-Chlorodibenz[b,f][1,4]oxazepin-10(11H)-yl)-N-(4-pyridinylmethyl)-4-thiazolecarboxamide, monohydrochloride], the 50% effect level in assay [1] (mice, PBQ) (ED50) was put at a dose of 9.77 mg/kg. Further, the Kb in assay [2] is 794 nM.
In the case of `O=C(O)c1coc(CN2Cc3ccccc3Oc3ccc(Cl)cc32)n1` [Example 8A, 2-[(8-chlorodibenz[b,f][1,4]oxazepin-10(11H)yl)methyl]-4-oxazole carboxylic acid, sodium salt], the responders at 30 mg/kg in assay [1] was 10%. Further, in assay [2], the Kb was 39.8 nM.
The like results for `O=C(NCc1csc(N2Cc3ccccc3Oc3ccc(Cl)cc32)n1)c1ccncc1` [Example 36, N-[[2-(8-Chlorodibenz[b,f][1,4]oxazepin-10(11H)-yl)-4-thiazolyl]methyl]-4-pyridinecarboxamide, hydrochloride] were, in that order, 60% and 631 nM.
In the case of `OC(CCc1ccncc1)c1csc(N2Cc3ccccc3Oc3ccc(Cl)cc32)n1` (stereo not drawn) [Example 34B, α-[2-(8-Chlorodibenz[b,f][1,4]oxazepin-10(11H)-yl)-4-thiazolyl]-4-pyridinepropanol, dihydrochloride], in assay [1], the responders at 30 mg/kg was 50%. For the same compound, the Kb in assay [2] was 1580 nM.
The corresponding values for `O=C(Nc1ccncc1)c1csc(N2Cc3ccccc3Oc3ccc(Cl)cc32)n1` [Example 28, 2-(8-Chlorodibenz[b,f][1,4]oxazepin-10(11H)-yl)-N-4-pyridinyl-4-thiazolecarboxamide, hydrochloride] are 100% and 3160 nM.
